Values of other authors in patent publication US20250332126A1, “TOPICAL COMPOSITION FOR PAIN RELIEF” (JOHNSON & JOHNSON CONSUMER INC., priority 2022, published 2025).

Conditions: at 20° C.

## CCO [ethanol]
  vapor pressure: 5.95 kPa

## CC(C)O [isopropanol]
  vapor pressure: 4.40 kPa

## CO [methanol]
  vapor pressure: 11.9 kPa
